US8187572B2, “Diabetogenic rat model” (Hoffmann-La Roche Inc., priority 2005, dated 2012)

Key:
Type in all cases: in vivo, rat
[1] = Body weight, food intake and water intake of Pioglitazone-treated ZDF rats; conditions: ZDF rats group_low, group_mild and group_full; chronic treatment (7 weeks), 10 mg/kg/d food-admix
Protocol: ZDF and ZL rats were ordered at the age of 5 W. After arrival and following 1 week of adaptation, 1 ml of blood was collected retro-orbitally after a short narcosis (isoflurane) in 6 W-old rats. […] A group of 10 ZL rats was formed and followed as a control group along the study duration (FIG. 3). Three groups of ZDF rats receive either vehicle (untreated) or Pioglitazone (treated) as food Admix. In each untreated/treated group of ZDF rats, one is fed a high fat diet during 11 weeks (group_full), during 4 weeks (group_mild) or during 2 weeks (group_low). Treatment was administered orally and prepared as food-admix. This mode of administration was preferred over oral gavage to reduce stress to the animals, avoid dosing errors and minimize handling. Pioglitazone (sufficient for 90 kg food) was dissolved in 18 liters of water. For the three treatment groups of 10 rats each, 6 liters of solution was combined with 30 kg of the diabetogenic diet (KLIBA 2437 with 7% of fat) or 12 liters were mixed with 60 Kg of the chow diet (Kliba 3436). The food was carefully dried at a temperature not exceeding 40° C. and then pelleted. […] The graphs and tables present the data according to expected daily dose. […] Body weight and food consumption were recorded with an on-line data acquisition system ([…]) using electronic balances.

ZDF rats [2] = assay: Oral glucose tolerance test (OGTT) with fasting parameters and HOMA in Pioglitazone-treated ZDF rats; conditions: for HOMA (insulin resistance index) / fasting insulin levels: after 6 weeks of treatment
Protocol: ZDF and ZL rats were ordered at the age of 5 W. After arrival and following 1 week of adaptation, 1 ml of blood was collected retro-orbitally after a short narcosis (isoflurane) in 6 W-old rats. […] A group of 10 ZL rats was formed and followed as a control group along the study duration (FIG. 3). Three groups of ZDF rats receive either vehicle (untreated) or Pioglitazone (treated) as food Admix. In each untreated/treated group of ZDF rats, one is fed a high fat diet during 11 weeks (group_full), during 4 weeks (group_mild) or during 2 weeks (group_low). Treatment was administered orally and prepared as food-admix. This mode of administration was preferred over oral gavage to reduce stress to the animals, avoid dosing errors and minimize handling. Pioglitazone (sufficient for 90 kg food) was dissolved in 18 liters of water. For the three treatment groups of 10 rats each, 6 liters of solution was combined with 30 kg of the diabetogenic diet (KLIBA 2437 with 7% of fat) or 12 liters were mixed with 60 Kg of the chow diet (Kliba 3436). The food was carefully dried at a temperature not exceeding 40° C. and then pelleted. […] The graphs and tables present the data according to expected daily dose. […] Blood was then collected in conscious animals (tail vein) for baseline glucose and insulin measurements. […] Studying the evolution of blood glucose concentration along time after a load of glucose will give information about the ability of the organism to use glucose. Using the trapezoidal rule, glucose tolerance was calculated as area under the curve (AUC) of glucose concentration during 120 min and the change from baseline was calculated (delta AUC). HOMA index is also assessed during the OGTT by considering fasting insulin and fasting blood glucose (FBG) levels. HOMA: [FBG (mM)*(Fasting Insulin (μU))/22.5]. HOMA-index translates peripheral insulin resistance. Measurement of insulin was performed using Mercodia Rat Insulin ELISA kit.

ZDF rats [3] = assay: Intervention treatment with Pioglitazone in ZDF rats: post-prandial blood and plasma parameters; conditions: for average plasma TG level: at the end of treatment
Protocol: ZDF and ZL rats were ordered at the age of 5 W. After arrival and following 1 week of adaptation, 1 ml of blood was collected retro-orbitally after a short narcosis (isoflurane) in 6 W-old rats. […] A group of 10 ZL rats was formed and followed as a control group along the study duration (FIG. 3). Three groups of ZDF rats receive either vehicle (untreated) or Pioglitazone (treated) as food Admix. In each untreated/treated group of ZDF rats, one is fed a high fat diet during 11 weeks (group_full), during 4 weeks (group_mild) or during 2 weeks (group_low). Treatment was administered orally and prepared as food-admix. This mode of administration was preferred over oral gavage to reduce stress to the animals, avoid dosing errors and minimize handling. Pioglitazone (sufficient for 90 kg food) was dissolved in 18 liters of water. For the three treatment groups of 10 rats each, 6 liters of solution was combined with 30 kg of the diabetogenic diet (KLIBA 2437 with 7% of fat) or 12 liters were mixed with 60 Kg of the chow diet (Kliba 3436). The food was carefully dried at a temperature not exceeding 40° C. and then pelleted. […] The graphs and tables present the data according to expected daily dose. […] Blood sampling was always performed in the morning (9-11 am) 2-to-5 hours after feeding session and 2 h after last oral dosing (food was removed at 7:00 am). Blood (≈200 μl) was harvested retro-orbitally from slightly anesthetized rats (isoflurane) into tubes containing EDTA and kept on ice bed until centrifugation (6000 RPM for 20 minutes at 4° C.). […] Main plasma biochemical parameters (glucose(Gluco-quant, e.g. […] Quantification of HbA1c (%) was performed in whole blood, using an immuno-turbidimetric assay (Tina-quant, e.g. 11822039 from Roche Molecular Diagnostics). Glycosylated haemoglobin (HbA1c) is formed by the non-enzymatic covalent attachment of glucose to normal haemoglobin (HbA). […] HbA1c is a predictor of diabetic complications and interventions that reduce HbA1c correspondingly reduce the risk of complications (UKPDS, 1998). […] Commercially available ELISA kits (LINCO®) were used to quantify plasma concentration of insulin and adiponectin. Adiponectin is an adipokine which is […] and fasting plasma insulin concentration (Goldstein, 2002). Adiponectin plasma concentrations are decreased in […] patients and despite the fact that it is produced by adipocytes, as an individual becomes more obese, the adiponectine is decreased and insulin resistance increases ([…] et al., 1999).

With `CCc1ccc(CCOc2ccc(CC3SC(=O)NC3=O)cc2)nc1.Cl` (racemic) [Pioglitazone, (±)-5-[[4-[2-(5-ethyl-2-pyridinyl)ethoxy]phenyl]methyl]-2,4-] the “increase in BW versus vehicle” value [1] was “≈ 30%”, the “improvement of glucose tolerance (AUC) compared to vehicle” value (ZDF rats [2]; group_full, OGTT after 6 weeks of treatment) was 31% and the “HOMA (insulin resistance index)” value (ZDF rats [2]; group_full) was 14.1±2.7. The fasting insulin levels (ZDF rats [2]; group_full) was 2.0 ± 0.4 ng/mL, the FBG (ZDF rats [2]; group_full, after 7 weeks of treatment) was 6.7 ± 0.9 mM and the “AUC reduced compared to vehicle” value (ZDF rats [2]; group_low, OGTT after 6 weeks of treatment) was 36%. The “glucose excursion AUC” value (ZDF rats [2]; group_low, OGTT after 6 weeks of treatment, ZL 779±15) was 1000±48, the fasting insulin levels (ZDF rats [2]; group_low) was 1.7 ng/mL and the “HOMA (insulin resistance index)” value (ZDF rats [2]; group_low, ZL 2.0±0.1) was 9.4±0.8. For the same molecule, the FBG (ZDF rats [2]; group_low, vehicle 6.9±0.4, ZL 4.3±0.0) was 5.1 ± 0.1 mM, the “improvement of glucose tolerance (AUC) compared to vehicle” value (ZDF rats [2]; group_mild, OGTT after 6 weeks of treatment) was 29% and the “HOMA (insulin resistance index)” value (ZDF rats [2]; group_mild) was 10.9±1.9. For the same molecule, the fasting insulin levels (ZDF rats [2]; group_mild) was 1.6 ± 0.3 ng/mL, the FBG (ZDF rats [2]; group_mild, after 7 weeks of treatment) was 6.6 ± 1.3 mM and the “plasma total cholesterol levels” value (ZDF rats [3]; any of the treatment groups) was “did not change”. The “reduction of plasma triglyceride levels compared to vehicle” value (ZDF rats [3]; group_full (fully diabetic ZDF rats)) was 69.5±5.2%, the HbA1C (ZDF rats [3]; group_full ZDF rats, 10 mg/kg) was “significant reduction” and the blood glucose levels (ZDF rats [3]; group_full ZDF rats, apparent after 2 weeks, partially maintained, 10 mg/kg) was “strongly reduced”. The hyperinsulinemia (ZDF rats [3]; group_full ZDF rats, at the beginning of treatment, effect gone after 5 weeks) was “significantly reduced”, the “average plasma TG level” value (ZDF rats [3]; group_full) was 2.8 ± 0.5 mM and the “plasma TG levels” value (ZDF rats [3]; group_full, compared with ZL 1.1±0.1) was 2.9 ± 0.6 mM. The “plasma NEFA levels” value (ZDF rats [3]; group_full, data not shown) was “moderate improvement”, the hypertriglyceridemia (ZDF rats [3]; group_low) was “almost completely and immediately normalized” and the “development of hyperglycaemia and increase in HbA1c” value (ZDF rats [3]; group_low (moderately diabetic ZDF rats), values similar to untreated ZL rats) was “fully prevented”. The “average plasma TG level” value (ZDF rats [3]; group_low) was 1.6 ± 0.1 mM, the insulin levels (ZDF rats [3]; group_low, end of the 7 week treatment period, ZL 0.8±0.1) was 2.1 ± 0.2 ng/mL and the hyperinsulinemia (ZDF rats [3]; group_low, starting at week 2 of treatment, maintained until end of study) was “strongly reversed”.
